This note sets out measurements from US12459932B2, “KIF18A inhibitors” (AMGEN INC., priority 2018, dated 2025).

The target of the assay is T1, Recombinant human KIF18A (1-467 His-tagged) (Homo sapiens, UniProt Q8NI77).
T1 construct: Recombinant human KIF18A (1-467 His-tagged) protein; His
In words: KIF18A Enzyme Assay: microtubule-stimulated ATPase activity (ADP-Glo). It is filed as biochemical. The following applies: 30 nM KIF18A, 30 μg/mL pig microtubules, ATP 75 μM (Km), ADP-Glo luminescence. In short, it runs like this:
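Measures microtubule-stimulated ATPase activity as ADP formed, detected by luminescence. Compounds were tested as 2-fold serial dilutions over 22 points. IC50 values came from four-parameter logistic fits.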

T1 sequence (Q8NI77 1-467): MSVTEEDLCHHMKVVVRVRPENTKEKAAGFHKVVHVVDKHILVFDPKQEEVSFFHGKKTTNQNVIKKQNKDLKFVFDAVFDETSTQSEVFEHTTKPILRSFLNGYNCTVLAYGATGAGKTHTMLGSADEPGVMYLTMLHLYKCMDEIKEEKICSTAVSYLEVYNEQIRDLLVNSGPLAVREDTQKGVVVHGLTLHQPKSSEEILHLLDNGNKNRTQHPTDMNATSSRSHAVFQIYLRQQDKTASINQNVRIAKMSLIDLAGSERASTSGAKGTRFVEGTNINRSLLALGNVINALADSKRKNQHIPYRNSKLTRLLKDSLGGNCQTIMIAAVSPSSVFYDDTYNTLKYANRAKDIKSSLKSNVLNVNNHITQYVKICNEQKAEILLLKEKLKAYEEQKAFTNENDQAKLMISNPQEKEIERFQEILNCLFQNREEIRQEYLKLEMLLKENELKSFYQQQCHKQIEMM
T1 sequence (P02550 whole entry partner): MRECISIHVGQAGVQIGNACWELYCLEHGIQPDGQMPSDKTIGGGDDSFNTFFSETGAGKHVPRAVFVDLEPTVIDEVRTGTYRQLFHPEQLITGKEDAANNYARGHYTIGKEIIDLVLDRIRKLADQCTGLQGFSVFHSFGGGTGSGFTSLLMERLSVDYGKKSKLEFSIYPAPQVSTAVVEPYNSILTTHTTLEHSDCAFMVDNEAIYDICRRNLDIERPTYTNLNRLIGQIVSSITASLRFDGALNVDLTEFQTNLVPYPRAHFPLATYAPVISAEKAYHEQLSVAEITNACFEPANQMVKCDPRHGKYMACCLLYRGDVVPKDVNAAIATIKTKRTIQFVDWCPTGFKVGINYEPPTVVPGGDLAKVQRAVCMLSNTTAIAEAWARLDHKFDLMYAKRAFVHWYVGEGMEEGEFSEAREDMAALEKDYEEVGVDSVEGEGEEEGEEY
T1 sequence (P02554 whole entry partner): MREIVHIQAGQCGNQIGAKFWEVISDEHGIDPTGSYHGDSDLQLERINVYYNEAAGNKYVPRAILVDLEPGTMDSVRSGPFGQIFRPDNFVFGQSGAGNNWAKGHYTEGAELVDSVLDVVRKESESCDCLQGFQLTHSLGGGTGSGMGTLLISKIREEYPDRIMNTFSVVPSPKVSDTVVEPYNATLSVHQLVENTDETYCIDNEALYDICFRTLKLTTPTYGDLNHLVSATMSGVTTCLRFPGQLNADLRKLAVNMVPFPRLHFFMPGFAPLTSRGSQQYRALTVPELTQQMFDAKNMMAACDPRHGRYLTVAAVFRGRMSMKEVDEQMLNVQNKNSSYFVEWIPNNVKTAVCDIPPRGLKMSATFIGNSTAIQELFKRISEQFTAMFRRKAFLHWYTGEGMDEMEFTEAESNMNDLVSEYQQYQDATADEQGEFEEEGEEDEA

What is called IC50 is the concentration that inhibits the measured activity by half. For the compound `O=C(Nc1cccc(OCCC(O)C(F)(F)F)n1)c1ccc(NS(=O)(=O)CCO)cc1N1CCC2(CC1)CC2` (stereo not drawn) [Example 16-6, 4-((2-Hydroxyethyl)sulfonamido)-2-(6-azaspiro[2.5]octan-6-yl)-N-(6-(4,4,4-trifluoro-3-hydroxybutoxy)pyridin-2-yl)benzamide], the IC50 turned out to be 81 nM.

On to `Cc1cc(NC(=O)c2ccc(S(=O)(=O)NC(C)(C)C)cc2N2CCC3(CC2)CC3)nc(N2CCOCC2)c1` [Example 1-10, 4-(N-(tert-Butyl)sulfamoyl)-N-(4-methyl-6-morpholinopyridin-2-yl)-2-(6-azaspiro[2.5]octan-6-yl)benzamide], for which the IC50 was 222 nM.

On to `Cc1cc(NC(=O)c2ccc(NS(=O)(=O)CCO)cc2N2CCC3(CC2)CC3)nc(OCCCC(F)(F)F)c1` [Example 17-3, 4-((2-Hydroxyethyl)sulfonamido)-N-(4-methyl-6-(4,4,4-trifluorobutoxy)pyridin-2-yl)-2-(6-azaspiro[2.5]octan-6-yl)benzamide], for which the IC50 was 184 nM.

As for `CC(C)(C)NS(=O)(=O)c1ccc(C(=O)Nc2cccc(NC3(CO)COC3)n2)c(N2CCC3(CC2)CC3)c1` [Example 3-4, 4-(N-(tert-Butyl)sulfamoyl)-N-(6-((3-(hydroxymethyl)oxetan-3-yl)amino)pyridin-2-yl)-2-(6-azaspiro[2.5]octan-6-yl)benzamide], the IC50 amounted to 149 nM.

As for `C[C@H](CO)S(=O)(=O)Nc1ccc(C(=O)Nc2cccc(N3CCC(F)(F)CC3)n2)c(N2CCC3(CC2)CC3)c1` (single isomer, unassigned) [Example 9-10], the IC50 was determined as 37 nM.

As to `Cc1cc(NC(=O)c2ccc(NS(=O)(=O)CCO)cc2N2CCC3(CC2)CC3)nc(OCCC(F)(F)F)c1` [Example 17, 4-((2-Hydroxyethyl)sulfonamido)-N-(4-methyl-6-(3,3,3-trifluoropropoxy)pyridin-2-yl)-2-(6-azaspiro[2.5]octan-6-yl)benzamide], the IC50 was 24 nM.

Regarding `Cc1cc(NC(=O)c2ccc(NS(=O)(=O)C3(C)CC3)cc2N2CCC3(CC2)CC3)nc(N2CCC(F)(F)CC2)c1` [Example 4-10, N-(6-(4,4-Difluoropiperidin-1-yl)-4-methylpyridin-2-yl)-4-((1-methylcyclopropane)-1-sulfonamido)-2-(6-azaspiro[2.5]octan-6-yl)benzamide], the IC50 is 95 nM.

Take `CC(C)(C)NS(=O)(=O)c1ccc(C(=O)Nc2cccc(N3CCC[C@H](O)C3)n2)c(N2CCC3(CC2)CC3)c1` [Example 3-3, (S)-4-(N-(tert-Butyl)sulfamoyl)-N-(6-(3-hydroxypiperidin-1-yl)pyridin-2-yl)-2-(6-azaspiro[2.5]octan-6-yl)benzamide]: the IC50 stood at 96 nM.

With `Cc1cc(NC(=O)c2ccc(S(=N)(=O)C3CC3)cc2N2CCC3(CC2)CC3)nc(N2CCO[C@H](C)C2)c1` (single isomer, unassigned) [Example 29-1], the IC50 is 165 nM.
